From US20230357189A1, “MODIFIED FLUOROQUINOLONES AND USES THEREOF” (Technion Research & Development Foundation Limited, priority 2021, published 2023)
≈ marks a conversion by molar mass, not a printed value.

Columns and labels:
Escherichia coli 25922 = assay: Antibacterial activity, MIC by double-microdilution method; format: cell-based; details: for MIC / Gram-negative MIC b: Table 2, Escherichia coli 25922; for MIC: read-out: Gram-negative MIC b
[1] = tested on: Staphylococcus Epidermidis; assay: as above; format: cell-based; details: for MIC: Table 2, read-out: Gram-positive MIC c; for Gram-positive MIC c: Table 2
Bacillus Subtilis = assay: as above; format: cell-based; details: for MIC / Gram-positive MIC d: Table 2, Bacillus Subtilis; for MIC: read-out: Gram-positive MIC d
E. coli DNA gyrase [2] = biological target: T1, E. coli DNA gyrase (Escherichia coli, UniProt P0AES4+P0AES6); assay: E. coli Gyrase-DNA supercoiling assay; format: biochemical; details: supercoiling of relaxed pHOT-1 plasmid in presence of ATP; 37° C., 60 minutes
T1 construct: purchased TopoGEN
T1 sequence (P0AES4 whole entry, one chain of several): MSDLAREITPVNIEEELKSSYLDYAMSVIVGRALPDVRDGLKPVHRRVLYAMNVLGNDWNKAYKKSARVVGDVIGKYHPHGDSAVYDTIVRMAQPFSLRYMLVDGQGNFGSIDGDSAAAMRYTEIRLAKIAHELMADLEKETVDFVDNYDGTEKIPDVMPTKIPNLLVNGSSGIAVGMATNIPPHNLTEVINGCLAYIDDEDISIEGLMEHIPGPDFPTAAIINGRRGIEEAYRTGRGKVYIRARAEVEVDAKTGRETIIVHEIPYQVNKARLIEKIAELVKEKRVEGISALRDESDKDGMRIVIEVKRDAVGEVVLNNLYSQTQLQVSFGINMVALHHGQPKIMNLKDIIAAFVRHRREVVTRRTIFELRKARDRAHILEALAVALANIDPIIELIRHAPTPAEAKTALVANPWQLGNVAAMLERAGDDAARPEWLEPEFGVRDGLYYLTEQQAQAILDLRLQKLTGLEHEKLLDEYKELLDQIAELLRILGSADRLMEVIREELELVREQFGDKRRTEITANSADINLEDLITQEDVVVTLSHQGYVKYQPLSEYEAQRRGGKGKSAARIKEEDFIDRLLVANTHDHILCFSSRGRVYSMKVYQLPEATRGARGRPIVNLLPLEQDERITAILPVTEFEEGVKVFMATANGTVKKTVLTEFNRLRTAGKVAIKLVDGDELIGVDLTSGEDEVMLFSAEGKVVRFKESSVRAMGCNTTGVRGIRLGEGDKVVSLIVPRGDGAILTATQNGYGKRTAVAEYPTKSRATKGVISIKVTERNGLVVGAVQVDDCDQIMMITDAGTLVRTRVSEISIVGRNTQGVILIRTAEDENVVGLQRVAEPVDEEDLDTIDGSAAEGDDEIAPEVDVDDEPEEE
Description: The DNA supercoiling reactions were based on the manufacturer protocol (TopoGEN). The amount of DNA gyrase used in each assay was optimized by testing various dilutions of the stock. The amount sufficient to supercoil 250 nanograms (ng) of the substrate in 1 hour at 37° C. was then used for testing the compounds (1.1 U as defined by manufacturer). Assays (30 μL) contained 250 nanograms of relaxed pHOT1 plasmid DNA in Tris-HCl buffer (35 mM), pH 7.5, containing KCl (24 mM), MgCl2 (4 mM), DTT (2 mM), Spermidine (1.8 mM), ATP (1 mM), 6.5% (w/v) glycerol and bovine serum albumin (0.1 mg/ml). Reactions were incubated at 37° C. for 60 minutes. Reaction mixtures were stopped by the addition of 30 μL of loading buffer (40% sucrose, 100 mM Tris·HCl (pH 7.5), 1 mM EDTA, 0.5 mg×mL^−1 bromophenol blue) and worked up using 30 μL of 24:1 chloroform/isoamyl alcohol mixture; the aqueous layer was then analyzed using electrophoresis.
Electrophoresis, gel staining, DNA visualization and DNA quantification were performed as described for the DNA cleavage assays.

[3] = tested on: Escherichia coli R477-100; assay: Antibacterial activity, MIC by double-microdilution method; format: cell-based; details: for MIC: R477100, read-out: Gram-negative MIC a; for MIC / Gram-negative MIC a: Table 2, without DTT
E. coli DNA gyrase [4] = biological target: T1, E. coli DNA gyrase; assay: E. coli Gyrase-DNA cleavage assay; format: biochemical; details: for linearization of supercoiled DNA with DNA gyrase, after Proteinase K / generation of linear DNA with DNA gyrase, without Proteinase K: absence of ATP; for linearization of supercoiled DNA with DNA gyrase, after Proteinase K: second incubation with SDS and Proteinase K; for generation of linear DNA with DNA gyrase, without Proteinase K / concentration of maximum linear DNA (bell-shaped profile): without Proteinase K treatment; for generation of linear DNA with DNA gyrase, without Proteinase K: buffer with DTT
Description: E. coli gyrase enzyme was purchased from TopoGEN and the DNA cleavage reactions were based on the protocol of Inspiralis. Assays (30 μL) contained supercoiled (+) pHOT1 plasmid (200 nanograms) and DNA gyrase (5 U as defined by manufacturer) in 35 mM Tris-HCl (pH 7.5), 24 mM KCl, 4 mM MgCl2, 2 mM DTT, 1.8 mM Spermidine, 6.5% (w/v) glycerol and 0.1 mg/mL bovine serum albumin. Reactions were incubated at 37° C. for 60 minutes. Enzyme-DNA cleavage complexes were trapped by adding 3 μL of 2% SDS. Following this, 1.5 μL of 10 mg/mL Proteinase K (Sigma-Aldrich) was added (where relevant) and the reaction mixtures were incubated at 37° C. for 30 minutes to digest the enzyme gyrase. Samples were mixed with 30 μL of loading buffer (40% sucrose, 100 mM Tris-HCl (pH 7.5), 1 mM EDTA, 0.5 mg-ml-1 bromophenol blue) and worked up using 30 μL of 24:1 chloroform/isoamyl alcohol mixture; the aqueous layer was then analyzed using electrophoresis. Electrophoresis, gel staining, DNA visualization and DNA quantification were performed as described for the DNA cleavage assays. DNA double stranded cleavage was monitored by the conversion of supercoiled plasmid to linear DNA and quantified in comparison to a control drug-free reaction.
To investigate the mechanism of inhibition, a DNA gyrase-induced DNA cleavage assay was performed in the absence of ATP. In this assay, the production of linear DNA from supercoiled DNA is measured as a function of compound concentration. […] Consequently, for the purposes of this assay, it is necessary to perform a second incubation of the reaction mixture with SDS and Proteinase K, which enables the digestion of the DNA gyrase enzyme and thereby ‘frees’ the linear DNA (Form III) so that it moves during electrophoresis.

[5] = tested on: supercoiled (+) pHOT-1 plasmid DNA; assay: DNA cleavage assay (gel electrophoresis); format: biochemical; details: for DNase activity (cleavage of supercoiled plasmid, form I to form II): absence of adjuvants, HEPES buffer (50 mM, pH 7.4), 5 hours; for concentration giving almost complete smearing of the DNA (multiply nicked DNA): ascorbic acid (0.32 mM), HEPES pH 7.4, 2 hours
Description: Removal of Ligands Prior to Electrophoresis was performed when more than 100 μM of Cu(II)-ligand or Co(III) ligand (at any concentration) complexes were employed that is, for DNA cleavage assays that were performed in the absence of any adjuvants. An Amberlyst® 15 (Sigma Aldrich) ion-exchange resin was prepared according to the reported literature [Hettich et al. J. Am. Chem. Soc. 1997, 119 (24), 5638-5647] and stored at −20° C. Before use, 0.5 gram of the exchanger was mixed with 250 μL of water. After stopping the DNA-cleavage reaction by addition of EDTA (54 mM, 15 minutes incubation at 37° C.), 10 μL of the exchanger suspension was added, vortexed, and incubated at 37° C. for 15 minutes before centrifugation and electrophoresis.
DNA cleavage activity of the tested Complexes towards supercoiled (+) pHOT-1 plasmid DNA (TopoGEN) was monitored by gel electrophoresis. In a typical experiment, plasmid DNA (200 ng, […]) in HEPES buffer (50 mM, pH 7.4) was mixed with different concentrations of a tested metal complex in the presence or absence of ascorbic acid (0.32 mM). All stock solutions of buffers and of the metal complexes were prepared using HPLC grade water (ChromAR®). Molecular biology reagent grade water (Sigma) was added up to a total reaction volume of 30 μL before incubation for a given time. For the ascorbic acid assays, the reaction was quenched immediately after incubation with EDTA (54 mM). For analysis, 10 μL of loading buffer (40% sucrose, 100 mM Tris-HCl (pH 7.5), 1 mM EDTA, 0.5 mg·mL^−1 bromophenol blue) was added to the incubated solution and loaded onto an agarose (SeaKem LE) gel [1% in TAE×1 buffer (40 mM Tris, 20 mM acetic acid, 1 mM EDTA)]. Electrophoresis was carried out at 60 V for 2 hours. Gels were stained with 1 μg·mL^−1 ethidium bromide for 30 minutes and de-stained in TAE×1 buffer. DNA bands were visualized with medium-range ultraviolet light using Bio-Rad Gel Doc XR+ imaging system. The quantity of different DNA forms (I or II) was estimated using ImageJ software.
Chem. 2015, 2015 (28), 4722-4730; Kashiba-Iwatsuki et al. FEBS Lett. 1996, 389 (2), 149-15].
The copper complex of compound 2 (2-Cu(II)) was used as the positive control in these assays.

[6] = tested on: Gram-negative and Gram-positive bacteria; assay: Comparative antibacterial activity, all tested bacteria; format: cell-based; details: MIC, Table 2 and 3
Description: Comparative antibacterial activities were determined by measuring the MIC values by using the double-microdilution method according to the National Committee for Clinical Laboratory Standards (NCCLS). The Luria-Bertani growth medium and polypropylene 96-well plates (Thermo) were used unless otherwise stated. All the experiments were performed in triplicate, and analogous results were obtained in three different experiments.
Compounds 1-6 and their Cu(II) and Co(III) complexes, as well as the pendant-bearing compounds 19-23 and 26 were tested for their comparative antibacterial activity by determining MIC values against two Gram-negative E. coli strains (AR477-100 and 25922) and two Gram-positive strains, Staphylococcus Epidermidis, and Bacillus Subtilis.

SMILES | MIC (Escherichia coli 25922) | MIC [1] | MIC (Bacillus Subtilis) | IC50 (E. coli DNA gyrase [2]) | MIC ([3]; Escherichia coli R477-100) | linearization of supercoiled DNA with DNA gyrase, after Proteinase K (E. coli DNA gyrase [4]) | Gram-negative MIC b (Escherichia coli 25922) | Gram-positive MIC c [1] | Gram-positive MIC d (Bacillus Subtilis) | DNase activity (cleavage of supercoiled plasmid, form I to form II) [5] | Gram-negative MIC a ([3]; Escherichia coli R477-100) | antibacterial activity (in words) [6] | improvement of MIC in the presence of DTT (Escherichia coli 25922; 10 mM DTT vs without DTT, E. coli 25922) | improvement of MIC in the presence of DTT (Bacillus Subtilis; 10 mM DTT vs without DTT, Gram-positive B. Subtilis) | Gram-negative MIC, DTT 10 mM ([3]; Escherichia coli R477-100, DTT 10 mM) | generation of linear DNA with DNA gyrase, without Proteinase K (E. coli DNA gyrase [4]) | concentration of maximum linear DNA (bell-shaped profile) (E. coli DNA gyrase [4]) | concentration giving almost complete smearing of the DNA (multiply nicked DNA) [5] | improvement of MIC in the presence of DTT ([3]; 10 mM DTT vs without DTT, Gram-negative E. coli R477-100)
O=C(O)c1cn(C2CC2)c2cc(N3CCN(CCCCCCN4CCNCCNCCNCC4)CC3)c(F)cc2c1=O [Compound 1] | 24 µg/mL (≈ 41 µM) | 12 µg/mL (≈ 20.5 µM) | 12 µg/mL (≈ 20.5 µM) | 130 ± 30 nM | 12 µg/mL (≈ 20.5 µM) | significant linearization of DNA |  |  |  |  |  |  |  |  |  |  |  |  | 
O=C(O)c1cn(C2CC2)c2cc(N3CCN(CCCCCCCN4CCNCCNCCNCC4)CC3)c(F)cc2c1=O [Compound 2] | 6 µg/mL (≈ 10 µM) | 12 µg/mL (≈ 20 µM) | 12 µg/mL (≈ 20 µM) | 240 ± 30 nM | 12 µg/mL (≈ 20 µM) | significant linearization of DNA |  |  |  |  |  |  |  |  |  |  |  |  | 
O=C(O)c1cn(C2CC2)c2cc(N3CCN(Cc4ccc(CN5CCNCCNCCNCC5)cc4)CC3)c(F)cc2c1=O [Compound 4] | 12 to 24 µg/mL (≈ 19.8 to 39.6 µM) | 6 to 12 µg/mL (≈ 9.9 to 19.8 µM) | 6 to 12 µg/mL (≈ 9.9 to 19.8 µM) | 150 ± 10 nM | 12 to 24 µg/mL (≈ 19.8 to 39.6 µM) | significant linearization of DNA |  |  |  |  |  |  |  |  |  |  |  |  | 
O.O=C(O)c1cn(C2CC2)c2cc(N3CCN(Cc4ccc(CCCN5CCNCCNCCNCC5)cc4)CC3)c(F)cc2c1=O.[Cu+2] [6-Cu(II)] |  |  |  | 90 ± 10 nM |  |  | 3 µg/mL | 3 µg/mL | 6 µg/mL | only very limited activity | 6 µg/mL |  |  |  |  |  |  |  | 
O.O=C(O)c1cn(C2CC2)c2cc(N3CCN(Cc4ccc(CCCN5CCNCCNCCNCC5)cc4)CC3)c(F)cc2c1=O.[Co+3].[OH-] [6-Co(III)] |  |  |  |  |  |  | 3 µg/mL | 3 µg/mL | 3 µg/mL |  | 6 µg/mL | slightly higher activity |  |  |  |  |  |  | 
O.O=C(O)c1cn(C2CC2)c2cc(N3CCN(Cc4ccc(CN5CCNCCNCCNCC5)cc4)CC3)c(F)cc2c1=O.[Cu+2] [4-Cu(II)] |  |  |  | 140 ± 20 nM |  | linearized the DNA in a similar manner to the metal-free ligands | 12 µg/mL | 3 µg/mL | 6 µg/mL | very significant enhancement in the rates of DNA cleavage | 24 µg/mL |  | 4 fold | 4 fold | 3.0 µg/mL | able to generate a significant quantity of linear DNA | 25 µM |  | 
O.O=C(O)c1cn(C2CC2)c2cc(N3CCN(CCCCCCN4CCNCCNCCNCC4)CC3)c(F)cc2c1=O.[Cu+2] [1-Cu(II)] |  |  |  | 100 ± 10 nM |  | linearized the DNA in a similar manner to the metal-free ligands | 48 µg/mL | 24 µg/mL | 48 µg/mL | very significant enhancement in the rates of DNA cleavage | 24 µg/mL |  |  |  |  | not able to generate linear DNA at any concentration |  | > 40 µM | no change whatsoever
O.O=C(O)c1cn(C2CC2)c2cc(N3CCN(CCCCCCCN4CCNCCNCCNCC4)CC3)c(F)cc2c1=O.[Cu+2] [2-Cu(II)] |  |  |  | 240 ± 30 nM |  | linearized the DNA in a similar manner to the metal-free ligands | 6 µg/mL | 12 µg/mL | 12 µg/mL | significant cleavage enhancement even in relation to the activity of 1-Cu(II) and 4-Cu(II) | 12 µg/mL |  |  |  |  | able to generate a significant quantity of linear DNA | 25 µM | 20 µM | 
